EP0745595A1, “3-(3-Aryloxyphenyl)-1-(substituted methyl)-s-triazine-2,4,6-oxo or thiotrione herbicidal agents” (American Cyanamid Company, priority 1995, dated 1996)

Tests used:
Assay type in all cases: in vivo
[1] = test system: ABUTILON THEOPHRASTI, MEDIC.; experiment: Postemergence herbicidal evaluation, ABUTH (Velvetleaf); conditions: for ABUTH, herbicide rating (0-9): rated four to five weeks after treatment, averaged
Method in brief: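 This postemergence herbicide test used two-week-old velvetleaf seedlings grown in jiffy flats. Each compound was sprayed at 40 psi as a dispersion in 50/50 acetone/water with 0.5% TWEEN®20 surfactant. Plants then received routine greenhouse care. After four to five weeks, injury was scored visually on a 0-9 scale against a control, and replicate tests were averaged.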

[2] = test system: AMBROSIA ARTEMISIIFOLIA, L.; experiment: Postemergence herbicidal evaluation, AMBEL (Ragweed, Common)
Method in brief: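 Postemergence herbicidal activity on AMBEL (common ragweed) was assessed on two-week-old seedlings grown in jiffy flats. Treatment solutions of 50/50 acetone/water with 0.5% TWEEN®20 surfactant were sprayed at 40 psi. After four to five weeks in the greenhouse, plants were scored 0-9 against a control for stand, vigor, malformation, size, chlorosis and overall appearance, with multiple tests averaged.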

CASSIA OBTUSIFOLIA, L. = experiment: Postemergence herbicidal evaluation, CASOB (Sicklepod); set-up: key to CASOB rating / Herbicidal effect rating, CASOB / CASOB: 0-9 visual rating scale vs untreated control
Method in brief: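 Postemergence foliar spray at approximately 0.125–0.500 kg/ha onto two-week seedlings; greenhouse hold, then 0–9 visual injury rating after 4–5 weeks.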

CHENOPODIUM ALBUM, L. [3] = experiment: Postemergence herbicidal evaluation, CHEAL (Lambsquarters, Common)
Method in brief: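 Postemergence herbicidal activity on Chenopodium album was tested by spraying two-week-old seedlings grown in jiffy flats with compound in acetone/water (50/50) plus 0.5% TWEEN®20, using a 40 psi nozzle. Four to five weeks after treatment, stand, vigor, malformation, size, chlorosis and overall appearance were scored 0-9 relative to controls, with repeat tests averaged.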

IPOMOEA SPP. = experiment: Postemergence herbicidal evaluation, IPOSS (Morningglory spp.); conditions: for IPOSS, herbicide rating (0-9): rated four to five weeks after treatment, averaged
Method in brief: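 In this greenhouse postemergence herbicide test on Ipomoea spp. (morningglory), compounds in 50/50 acetone/water with 0.5% TWEEN®20 were sprayed at 40 psi onto seedlings about two weeks old grown in jiffy flats. After four to five weeks, injury was scored on a 0-9 scale covering stand, vigor, malformation, size, chlorosis and overall appearance versus control, with repeat tests averaged.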

[4] = test system: ECHINOCHLOA CRUS-GALLI, (L) BEAU; experiment: Postemergence herbicidal evaluation, ECHCG (Barnyardgrass); set-up: key to ECHCG rating / Herbicidal effect rating, ECHCG / ECHCG: 0-9 visual rating scale vs untreated control
Method in brief: (§1)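 Ratings (0-9) reflect visual stand, vigor, malformation, size and chlorosis compared with untreated plants, assessed 4-5 weeks after postemergence spraying. Treatment was applied to roughly two-week-old seedlings at about 0.125-0.500 kg/ha in acetone/water with 0.5% Tween 20; replicate tests were averaged.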

[5] = test system: SETARIA VIRIDIS, (L) BEAU; experiment: Postemergence herbicidal evaluation, SETVI (Foxtail, Green); set-up: key to SETVI rating / Herbicidal effect rating, SETVI / SETVI: 0-9 visual rating scale vs untreated control; conditions: for SETVI, herbicide rating (0-9): rated four to five weeks after treatment, averaged
Method in brief: as §1

[6] = test system: TRITICUM AESTIVUM, CV. APOLLO; experiment: Postemergence herbicidal evaluation, TRZAWO (Wheat, Winter, CV. APOLLO)
Method in brief: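 This greenhouse postemergence test applied compounds to roughly two-week-old wheat seedlings grown in jiffy flats. The spray solution was 50/50 acetone/water with 0.5% TWEEN®20, a polyoxyethylene sorbitan monolaurate, sprayed from a nozzle run at 40 psi. After four to five weeks of standard greenhouse care, injury was scored from 0 to 9 by comparing stand, vigor, malformation, size, chlorosis and overall appearance with a control. Multiple tests were averaged.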

ZEA MAYS L. = experiment: Postemergence herbicidal evaluation, ZEAMX (Corn, Field); conditions: for ZEAMX, herbicide rating (0-9): crop, rated four to five weeks after treatment, averaged
Method in brief: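 This greenhouse postemergence test treated corn plants about two weeks old. Compounds in a 50/50 acetone/water mixture with 0.5% TWEEN®20 were applied through a spray nozzle at 40 psi. After four to five weeks, injury was scored 0-9 against an untreated control, judging stand, vigor, malformation, size, chlorosis and overall appearance. Repeated tests were averaged.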

CHENOPODIUM ALBUM, L. [7] = experiment: Preemergence herbicidal evaluation, CHEAL (Lambsquarters, Common); conditions: four to five weeks after treatment
Method in brief: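 Seeds mixed with potting soil were planted on about one inch of soil in cups, then sprayed with aqueous acetone solution of test compound at about 0.125 to 0.50 kg per hectare. Plants grown under greenhouse conditions; visual rating on a 0-9 scale versus untreated control at 4-5 weeks.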

[8] = test system: ORYZA SATIVA, L. TEBONNET; experiment: Rice tolerance to post-transplant applications under flooded paddy conditions, ORYSAT (Rice, Tebonnet); conditions: for ORYSAT herbicidal rating (rice tolerance): post-transplant rice, rated three to four weeks after treatment; for ORYSAT: post-transplanted rice;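 on ORYSAT herbicidal rating (rice tolerance): applied to flooded soil surface three days after transplanting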
Method in brief: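 Visual 0-9 rating against untreated control (stand, vigor, malformation, size, chlorosis, overall appearance), taken 3-4 weeks after treatment. Flooded silt loam, water at 1.5-3 cm; two 10-day-old seedlings per pot; compound applied to flooded soil surface 3 days post-transplant at ~0.5-0.063 kg/ha.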

COC(=O)Cn1c(=O)n(C)c(=O)n(-c2cc(Oc3c(F)cc(C(F)(F)F)cc3Cl)ccc2F)c1=O [Compound 4, Methyl 3-{5-[(2-chloro-α,α,α,6-tetrafluoro-p-tolyl)oxy]-2-fluorophenyl}tetrahydro-5-methyl-2,4,6-trioxo-s-triazine-1(2H)-acetate]
Herbicidal effect rating, ABUTH ([1]; 0.031 kg/ha): 8.9
Herbicidal effect rating, ABUTH ([1]; 0.063 kg/ha): 8.9
Herbicidal effect rating, ABUTH ([1]; 0.125 kg/ha): 9.0
Herbicidal effect rating, ABUTH ([1]; 0.250 kg/ha): 9.0
ABUTH, herbicide rating (0-9) ([1]; Rate 0.125 kg/ha): 9.0
ABUTH, herbicide rating (0-9) ([1]; Rate 0.250 kg/ha): 9.0
ABUTH, herbicide rating (0-9) ([1]; Rate 0.500 kg/ha): 9.0
Herbicidal effect rating, AMBEL ([2]; 0.031 kg/ha): 7.2
Herbicidal effect rating, AMBEL ([2]; 0.063 kg/ha): 8.0
Herbicidal effect rating, AMBEL ([2]; 0.125 kg/ha): 8.5
Herbicidal effect rating, AMBEL ([2]; 0.250 kg/ha): 8.9
Herbicidal effect rating, CASOB (CASSIA OBTUSIFOLIA, L.; 0.031 kg/ha): 8.6
Herbicidal effect rating, CASOB (CASSIA OBTUSIFOLIA, L.; 0.063 kg/ha): 8.4
Herbicidal effect rating, CASOB (CASSIA OBTUSIFOLIA, L.; 0.125 kg/ha): 9.0
Herbicidal effect rating, CASOB (CASSIA OBTUSIFOLIA, L.; 0.250 kg/ha): 8.4
Herbicidal effect rating, CHEAL (CHENOPODIUM ALBUM, L. [3]; 0.031 kg/ha): 7.9
Herbicidal effect rating, CHEAL (CHENOPODIUM ALBUM, L. [3]; 0.063 kg/ha): 8.8
Herbicidal effect rating, CHEAL (CHENOPODIUM ALBUM, L. [3]; 0.125 kg/ha): 8.9
Herbicidal effect rating, CHEAL (CHENOPODIUM ALBUM, L. [3]; 0.250 kg/ha): 9.0
Herbicidal effect rating, IPOSS (IPOMOEA SPP.; 0.031 kg/ha): 8.9
Herbicidal effect rating, IPOSS (IPOMOEA SPP.; 0.063 kg/ha): 8.9
Herbicidal effect rating, IPOSS (IPOMOEA SPP.; 0.125 kg/ha): 9.0
Herbicidal effect rating, IPOSS (IPOMOEA SPP.; 0.250 kg/ha): 9.0
IPOSS, herbicide rating (0-9) (IPOMOEA SPP.; Rate 0.125 kg/ha): 9.0
IPOSS, herbicide rating (0-9) (IPOMOEA SPP.; Rate 0.250 kg/ha): 9.0
IPOSS, herbicide rating (0-9) (IPOMOEA SPP.; Rate 0.500 kg/ha): 9.0
Herbicidal effect rating, ECHCG ([4]; 0.031 kg/ha): 3.8
Herbicidal effect rating, ECHCG ([4]; 0.063 kg/ha): 6.0
Herbicidal effect rating, ECHCG ([4]; 0.125 kg/ha): 8.2
Herbicidal effect rating, ECHCG ([4]; 0.250 kg/ha): 8.9
Herbicidal effect rating, SETVI ([5]; 0.031 kg/ha): 6.9
Herbicidal effect rating, SETVI ([5]; 0.063 kg/ha): 8.6
Herbicidal effect rating, SETVI ([5]; 0.125 kg/ha): 9.0
Herbicidal effect rating, SETVI ([5]; 0.250 kg/ha): 9.0
SETVI, herbicide rating (0-9) ([5]; Rate 0.125 kg/ha): 9.0
SETVI, herbicide rating (0-9) ([5]; Rate 0.250 kg/ha): 9.0
SETVI, herbicide rating (0-9) ([5]; Rate 0.500 kg/ha): 9.0
Herbicidal effect rating, TRZAWO ([6]; 0.031 kg/ha): 6.3
Herbicidal effect rating, TRZAWO ([6]; 0.063 kg/ha): 7.3
Herbicidal effect rating, TRZAWO ([6]; 0.125 kg/ha): 8.1
Herbicidal effect rating, TRZAWO ([6]; 0.250 kg/ha): 8.2
Herbicidal effect rating, ZEAMX (ZEA MAYS L.; 0.031 kg/ha): 8.1
Herbicidal effect rating, ZEAMX (ZEA MAYS L.; 0.063 kg/ha): 8.7
Herbicidal effect rating, ZEAMX (ZEA MAYS L.; 0.125 kg/ha): 8.9
Herbicidal effect rating, ZEAMX (ZEA MAYS L.; 0.250 kg/ha): 8.9
ZEAMX, herbicide rating (0-9) (ZEA MAYS L.; Rate 0.125 kg/ha): 8.8
ZEAMX, herbicide rating (0-9) (ZEA MAYS L.; Rate 0.250 kg/ha): 8.8
ZEAMX, herbicide rating (0-9) (ZEA MAYS L.; Rate 0.500 kg/ha): 8.8
CHEAL rating (CHENOPODIUM ALBUM, L. [7]; Rate 0.125 kg/ha): 9.0
CHEAL rating (CHENOPODIUM ALBUM, L. [7]; Rate 0.250 kg/ha): 9.0
CHEAL rating (CHENOPODIUM ALBUM, L. [7]; Rate 0.500 kg/ha): 9.0
ORYSAT herbicidal rating (rice tolerance) ([8]; Rate 0.063 kg/ha): 2.0
ORYSAT herbicidal rating (rice tolerance) ([8]; Rate 0.125 kg/ha): 3.2
ORYSAT herbicidal rating (rice tolerance) ([8]; Rate 0.250 kg/ha): 3.8
ORYSAT herbicidal rating (rice tolerance) ([8]; Rate 0.500 kg/ha): 4.7
ORYSAT ([8]; Rate 0.031 kg/ha): 1.6
ORYSAT ([8]; Rate 0.063 kg/ha): 2.1
ORYSAT ([8]; Rate 0.125 kg/ha): 3.6
ORYSAT ([8]; Rate 0.250 kg/ha): 3.7
